In US12186424B2, “Compositions and methods for treating pterygium recurrence” (Cloudbreak Therapeutics, LLC, priority 2015, dated 2025):
“Also recorded” adds a separate entry of the source.

Tests used:
[1] = target: Src (Homo sapiens, UniProt P12931); conditions: sources as Table 1 footnote; cited from earlier work
[2] = test system: human pterygium epithelial cells (hPECs); experiment: Human pterygium mouse model, corneal pterygium lesion size; conditions: vs day 7 baseline; 0.2% nintedanib, 0.05% sunitinib, 0.002% mitomycin or combination
[3] = test system: corneal neovascularization (NV); experiment: Human pterygium mouse model, corneal neovascularization score; type: in vivo, athymic nude mice; conditions: vs day 7 baseline, score 0 through 3, 0.2% nintedanib, 0.05% sunitinib, 0.002% mitomycin or combination
[4] = rabbit, in vivo
[5] = test system: suture-induced neovascularization in the rabbit cornea; experiment: Rabbit cornea suture model of neovascularization; type: in vivo
Procedure: The rabbit cornea suture model was established to assess drug effects on cornea neovascularization (Ko et al. Cornea. 2013; 32(5): 689-695; Perez-Santonj a et al. Am J Ophthalmol. 2010; 150(4):519-528). […] Thirty six female Zealand White rabbits were used to perform the study. […] The animals were treated in both eyes as described in Table 4. [table] During the study, the animals were closely observed for various ocular indications as well as general physical conditions including body weight. […] NIH ImageJ® software was used to analyze the ocular images. Each image was opened in ImageJ®, the scale was calibrated using the ruler in the photograph and the neovascularized area on the cornea near the suture was selected by the selection tool. […] The results were plotted as histograms of average with standard deviation for easy comparison.

[6] = rabbits with corneal sutures dosed with sunitinib for 7 days (Perez-Santonja 2010); cited from earlier work
[7] = 0.05% BID topical, Day 10 (after 2 days of treatment)
[8] = 0.05% BID topical, Day 12 (after 4 days of treatment)
[9] = 0.05% BID topical, Day 14 (after 6 days of treatment)
[10] = 0.05% TID topical, Day 10 (after 2 days of treatment)
[11] = 0.05% TID topical, Day 12 (after 4 days of treatment)
[12] = 0.05% TID topical, Day 14 (after 6 days of treatment)
[13] = 0.2% BID topical, Day 10 (after 2 days of treatment)
[14] = 0.2% BID topical, Day 12 (after 4 days of treatment)
[15] = 0.2% BID topical, Day 14 (after 6 days of treatment)
[16] = 0.2% TID topical, Day 10 (after 2 days of treatment)
[17] = 0.2% TID topical, Day 12 (after 4 days of treatment)
[18] = 0.2% TID topical, Day 14 (after 6 days of treatment)

Sequence of Src (P12931 whole entry, species assumed): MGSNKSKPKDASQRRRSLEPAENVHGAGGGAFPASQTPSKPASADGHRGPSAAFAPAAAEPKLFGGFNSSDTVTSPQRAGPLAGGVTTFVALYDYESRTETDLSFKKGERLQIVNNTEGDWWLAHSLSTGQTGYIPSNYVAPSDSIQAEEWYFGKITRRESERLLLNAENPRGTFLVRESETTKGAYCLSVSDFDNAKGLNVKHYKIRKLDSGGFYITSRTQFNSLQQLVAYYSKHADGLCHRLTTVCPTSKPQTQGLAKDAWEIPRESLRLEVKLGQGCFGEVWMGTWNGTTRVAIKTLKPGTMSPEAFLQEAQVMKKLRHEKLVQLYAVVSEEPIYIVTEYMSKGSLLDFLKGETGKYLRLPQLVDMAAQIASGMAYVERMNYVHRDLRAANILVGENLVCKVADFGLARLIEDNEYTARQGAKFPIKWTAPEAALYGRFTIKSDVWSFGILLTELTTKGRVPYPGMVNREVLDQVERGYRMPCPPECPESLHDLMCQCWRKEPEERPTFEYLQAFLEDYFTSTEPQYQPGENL

## COc1cc2c(Oc3ccc4[nH]c(C)cc4c3F)ncnc2cc1OCCCN1CCCC1 [Cediranib]
[1]
  IC50: 130 nM

## CO[C@@]12[C@H](COC(N)=O)C3=C(C(=O)C(C)=C(N)C3=O)N1C[C@@H]1N[C@@H]12 [MMC]
[2]
  Effect on pterygium lesion area on mouse cornea (in words): showed a trend of reduction in pterygium areas but didn't reach statistical significance at any of the time points; also recorded: showed a trend of reduction of pterygium lesion area but the differences at each time points from the day 7 baseline are not statistically significant
[3]; listed as Mitomycin
  Effect on corneal neovascularization score (in words): reduced neovascularization score, with significant reductions on day 17
[3]; listed as mitomycin
  Effect on corneal neovascularization score (in words): reduced the neovascularization on cornea and the reduction was significant comparing levels on day 17 vs the baseline on day 7

## COC(=O)c1ccc2c(c1)NC(=O)/C2=C(\Nc1ccc(N(C)C(=O)CN2CCN(C)CC2)cc1)c1ccccc1 [Nintedanib, Methyl (3Z)-3-{[(4-{methyl[(4-methylpiperazin-1-yl)acetyl]amino}phenyl)amino] (phenyl)methylidene}-2-oxo-2,3-dihydro-1H-indole-6-carboxylate]
[2]
  Effect on pterygium lesion area on mouse cornea (in words): led to a reduction of the pterygium area on day 14 and day 17 in comparison to the baseline level on day 7; also recorded: reduced pterygium lesion area on mouse cornea
[4]
  Potential toxicity: abnormal lens with incomplete lenticular opacity: none was observed
[5]; [7]
  Neovascular Area: 5.97 mm^2
  Neovascular Area Mean Percent Change over Day 7 Baseline (− sign indicates decrease): 64.08%
[5]; [8]
  Neovascular Area: 5.03 mm^2
  Neovascular Area Mean Percent Change over Day 7 Baseline (− sign indicates decrease): 45.56%
[5]; [9]
  Neovascular Area: 7.20 mm^2
  Neovascular Area Mean Percent Change over Day 7 Baseline (− sign indicates decrease): 99.48%
[5]; [10]
  Neovascular Area: 3.23 mm^2
  Neovascular Area Mean Percent Change over Day 7 Baseline (− sign indicates decrease): 1.99%
[5]; [11]
  Neovascular Area: 2.14 mm^2
  Neovascular Area Mean Percent Change over Day 7 Baseline (− sign indicates decrease): −27.87%
[5]; [12]
  Neovascular Area: 4.01 mm^2
  Neovascular Area Mean Percent Change over Day 7 Baseline (− sign indicates decrease): 32.66%
[5]; [13]
  Neovascular Area: 3.32 mm^2
  Neovascular Area Mean Percent Change over Day 7 Baseline (− sign indicates decrease): 12.09%
[5]; [14]
  Neovascular Area: 4.15 mm^2
  Neovascular Area Mean Percent Change over Day 7 Baseline (− sign indicates decrease): 37.15%
[5]; [15]
  Neovascular Area: 5.44 mm^2
  Neovascular Area Mean Percent Change over Day 7 Baseline (− sign indicates decrease): 73.51%
[5]; [16]
  Neovascular Area: 2.48 mm^2
  Neovascular Area Mean Percent Change over Day 7 Baseline (− sign indicates decrease): −16.84%
[5]; [17]
  Neovascular Area: 2.56 mm^2
  Neovascular Area Mean Percent Change over Day 7 Baseline (− sign indicates decrease): −13.80%
[5]; [18]
  Neovascular Area: 2.88 mm^2
  Neovascular Area Mean Percent Change over Day 7 Baseline (− sign indicates decrease): −1.51%
[5]; 0.2% or 0.05% topical, BID or TID, days 8 to 15
  Effect on suture-induced neovascularization in the rabbit cornea (in words): marked inhibitory effect on suture-induced neovascularization in the rabbit cornea
[3]
  Effect on corneal neovascularization score (in words): reduced neovascularization score on the cornea during the treatments with the level on day 17 showing a significant difference from the baseline on day 7
[3]; listed as nintedanib
  Effect on corneal neovascularization score (in words): reduced the neovascularization on cornea and the reduction was significant comparing levels on day 17 vs the baseline on day 7

## CCN(CC)CCNC(=O)c1c(C)[nH]c(/C=C2\C(=O)Nc3ccc(F)cc32)c1C [Sunitinib]
[6]
  Anterior chamber cellular reaction: an anterior chamber cellular reaction was observed on day 1
  Iris surface staining (drug deposits): Iris surface yellowish staining, which represents sunitinib deposits on the iris surface was observed during the whole dosing period
[4]
  Potential toxicity: abnormal lens with incomplete lenticular opacity: abnormal lens with incomplete lenticular opacity was observed in one rabbit
[5]; [10]
  Neovascular Area: 3.58 mm^2
  Neovascular Area Mean Percent Change over Day 7 Baseline (− sign indicates decrease): 10.80%
[5]; [11]
  Neovascular Area: 4.62 mm^2
  Neovascular Area Mean Percent Change over Day 7 Baseline (− sign indicates decrease): 49.72%
[5]; [12]
  Neovascular Area: 5.96 mm^2
  Neovascular Area Mean Percent Change over Day 7 Baseline (− sign indicates decrease): 98.38%
